Measurements reported in patent publication US20240238425A1, “HSD17B13 Inhibitors and/or Degraders” (Pfizer Inc., priority 2022, published 2024).
Counter-ions that a name gives are not always drawn.

System: HiBiT-HSD17β13 fusion protein (N-terminal HiBiT-tagged HSD17β13 isoform D) in Huh7 HiBiT-HSD17β13 OE cells
Assay: Whole-cell Huh7-HSD17B13 HiBiT assay (degrader potency and maximal efficacy, luminescence readout)
Assay type: cell-based, human
Conditions: 24 hour incubation, geometric mean, * = geometric mean for all forms tested (parent and salt forms); for DC50: read-out: Huh7_HIBIT-HSD17β13_DC50 GMean DC50; for Huh7_HIBIT-HSD17β13_DC50 GMean Asymptote Maximum: max. concentration 1 μM
In short: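 Luminescence from lytic HiBiT detection tracked residual HiBiT-HSD17β13 (isoform D, N-terminal tag) in a stable Huh7 overexpressing clone after 24 h compound treatment at 37° C, 11 concentrations up to 1 μM final. Percent effect used DMSO (zero) and parental Huh7 (high) wells; four-parameter fit gave 50% degradation; viability checked by CellTiter-Glo.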

| SMILES | DC50 | Huh7_HIBIT-HSD17β13_DC50 GMean Asymptote Maximum |
| --- | --- | --- |
| Cn1c(=O)n(C2CCC(=O)NC2=O)c2ccc(CCN3CCN(c4cncc(-c5ccc6cn(C7CCC(CNC(=O)c8cc(F)c(O)c(F)c8F)CC7)nc6c5)n4)CC3)cc21.O=C(O)C(F)(F)F (racemic) [Example 14, N-{[(1r,4r)-4-(6-{6-[4-(2-{1-[(3RS)-2,6-Dioxopiperidin-3-yl]-3-methyl-2-oxo-2,3-dihydro-1H-benzimidazol-5-yl}ethyl)piperazin-1-yl]pyrazin-2-yl}-2H-indazol-2-yl)cyclohexyl]methyl}-2,3,5-trifluoro-4-hydroxybenzamide, trifluoroacetate salt] | 0.23 nM | 85% |
| Cc1ccc(C(=O)N2CCC3(CC2)CCN(c2ncc(-c4ccc5cn([C@H]6CC[C@H](CNC(=O)c7cc(F)c(O)c(F)c7F)CC6)nc5c4)cn2)C3)cc1N1CCC(=O)NC1=O [Example 63, N-({(1r,4r)-4-[6-(2-{8-[3-(2,4-dioxo-1,3-diazinan-1-yl)-4-methylbenzoyl]-2,8-diazaspiro[4.5]decan-2-yl}pyrimidin-5-yl)-2H-indazol-2-yl]cyclohexyl}methyl)-2,3,5-trifluoro-4-hydroxybenzamide] | 2.6 nM | 80% |
| Cn1c(=O)n(C2CCC(=O)NC2=O)c2ccc(CCCN3CCN(c4ccc(-c5nc([C@]67CC[C@](CNC(=O)c8cc(F)c(O)c(F)c8F)(CC6)CC7)no5)nn4)CC3)cc21 (mixture of isomers) [Example 66, N-{[4-(5-{6-[4-(3-{1-[(3RS)-2,6-dioxopiperidin-3-yl]-3-methyl-2-oxo-2,3-dihydro-1H-benzimidazol-5-yl}propyl)piperazin-1-yl]pyridazin-3-yl}-1,2,4-oxadiazol-3-yl)bicyclo[2.2.2]octan-1-yl]methyl}-2,3,5-trifluoro-4-hydroxybenzamide, trifluoroacetate salt] | 0.32 nM | 75% |
| Cc1ccc(C(=O)N2CCC(CN3CCN(c4ncc(-c5ccc6cn([C@H]7CC[C@H](CNC(=O)c8cc(F)c(O)c(F)c8F)CC7)nc6c5)cn4)CC3)CC2)cc1N1CCC(=O)NC1=O [Example 45, N-{[(1r,4r)-4-(6-{2-[4-({1-[3-(2,4-dioxo-1,3-diazinan-1-yl)-4-methylbenzoyl]piperidin-4-yl}methyl)piperazin-1-yl]pyrimidin-5-yl}-2H-indazol-2-yl)cyclohexyl]methyl}-2,3,5-trifluoro-4-hydroxybenzamide, trifluoroacetate salt] | 3.1 nM | 76% |
| Cn1c(=O)n(C2CCC(=O)NC2=O)c2ccc(CCCN3CCN(c4ncc(-c5nc([C@]67CC[C@](CNC(=O)c8cc(F)c(O)c(F)c8F)(CC6)CC7)no5)cn4)CC3)cc21 (mixture of isomers) [Example 67, N-{[4-(5-{2-[4-(3-{1-[(3RS)-2,6-dioxopiperidin-3-yl]-3-methyl-2-oxo-2,3-dihydro-1H-benzimidazol-5-yl}propyl)piperazin-1-yl]pyrimidin-5-yl}-1,2,4-oxadiazol-3-yl)bicyclo[2.2.2]octan-1-yl]methyl}-2,3,5-trifluoro-4-hydroxybenzamide, trifluoroacetate salt] | 0.18 nM | 89% |
| Cn1c(=O)n(C2CCC(=O)NC2=O)c2ccc(CCN3CCOC4(C3)CN(c3ncc(-c5ccc6cn([C@H]7CC[C@H](CNC(=O)c8cc(F)c(O)c(F)c8F)CC7)nc6c5)cn3)C4)cc21 (mixture of isomers) [Example 79, N-{[(1r,4r)-4-(6-{2-[8-(2-{1-[(3RS)-2,6-dioxopiperidin-3-yl]-3-methyl-2-oxo-2,3-dihydro-1H-benzimidazol-5-yl}ethyl)-5-oxa-2,8-diazaspiro[3.5]nonan-2-yl]pyrimidin-5-yl}-2H-indazol-2-yl)cyclohexyl]methyl}-2,3,5-trifluoro-4-hydroxybenzamide, trifluoroacetate salt] | 0.31 nM | 78% |
| Cn1c(=O)n(C2CCC(=O)NC2=O)c2ccc(CC(C)(C)CN3CCN(c4nccc(-c5nc([C@]67CC[C@](CNC(=O)c8cc(F)c(O)c(F)c8F)(CC6)CC7)no5)n4)CC3)cc21 (mixture of isomers) [Example 134, N-{[4-(5-{2-[4-(3-{1-[(3RS)-2,6-dioxopiperidin-3-yl]-3-methyl-2-oxo-2,3-dihydro-1H-benzimidazol-5-yl}-2,2-dimethylpropyl)piperazin-1-yl]pyrimidin-4-yl}-1,2,4-oxadiazol-3-yl)bicyclo[2.2.2]octan-1-yl]methyl}-2,3,5-trifluoro-4-hydroxybenzamide, trifluoroacetate salt] | 6.5 nM | 85% |
| Cn1c(=O)n(C2CCC(=O)NC2=O)c2ccc(CCCN3CCN(c4cnc(-c5nc([C@]67CC[C@](CNC(=O)c8cc(F)c(O)c(F)c8F)(CC6)CC7)no5)cn4)CC3)cc21 (mixture of isomers) [Example 69, N-{[4-(5-{5-[4-(3-{1-[(3RS)-2,6-dioxopiperidin-3-yl]-3-methyl-2-oxo-2,3-dihydro-1H-benzimidazol-5-yl}propyl)piperazin-1-yl]pyrazin-2-yl}-1,2,4-oxadiazol-3-yl)bicyclo[2.2.2]octan-1-yl]methyl}-2,3,5-trifluoro-4-hydroxybenzamide, trifluoroacetate salt] | 0.16 nM | 88% |
| Cc1ccc(C(=O)N2CCN(CC3CCN(c4ncc(-c5ccc6cn([C@H]7CC[C@H](CNC(=O)c8cc(F)c(O)c(F)c8F)CC7)nc6c5)cn4)CC3)CC2)cc1N1CCC(=O)NC1=O [Example 42, N-{[(1r,4r)-4-(6-{2-[4-({4-[3-(2,4-dioxo-1,3-diazinan-1-yl)-4-methylbenzoyl]piperazin-1-yl}methyl)piperidin-1-yl]pyrimidin-5-yl}-2H-indazol-2-yl)cyclohexyl]methyl}-2,3,5-trifluoro-4-hydroxybenzamide, trifluoroacetate salt] | 3.3 nM | 83% |
| O=C1CCN(c2cnn3cc(CCCN4CC(F)(F)C5(C4)CN(c4ccc6cn([C@H]7CC[C@H](CNC(=O)c8cc(F)c(O)c(F)c8F)CC7)nc6c4)C5)ccc23)C(=O)N1 [Example 29, N-({(1r,4r)-4-[6-(6-{3-[3-(2,4-dioxo-1,3-diazinan-1-yl)pyrazolo[1,5-a]pyridin-6-yl]propyl}-8,8-difluoro-2,6-diazaspiro[3.4]octan-2-yl)-2H-indazol-2-yl]cyclohexyl}methyl)-2,3,5-trifluoro-4-hydroxybenzamide] | 1.9 nM | 80% |
| Cn1c(=O)n(C2CCC(=O)NC2=O)c2cccc(CCN3CCN(c4ccc5cn([C@H]6CC[C@H](CNC(=O)c7cc(F)c(O)c(F)c7F)CC6)nc5c4)CC3)c21 (mixture of isomers) [Example 56, N-{[(1r,4r)-4-{6-[4-(2-{1-[(3RS)-2,6-dioxopiperidin-3-yl]-3-methyl-2-oxo-2,3-dihydro-1H-benzimidazol-4-yl}ethyl)piperazin-1-yl]-2H-indazol-2-yl}cyclohexyl]methyl}-2,3,5-trifluoro-4-hydroxybenzamide, trifluoroacetate salt] | 0.64 nM | 82% |
